# Source: patent US4568765A, “Isoprenylamine derivatives” (priority 1981, dated 1986)
# Where two headings read alike, the source gives them in different places.
# Tests used:
# vaccinia virus [1] = assay type: in vivo; conditions: ICR female mice; 50 mg/kg intraperitoneally 24 hours before i.v. virus inoculation; lesions counted on 8th day; against surfactant solution group
# [2] = Toxicity (50% lethal dose, intravenous); assay type: in vivo; conditions: ddY male mice 20-25 g
# Text: Using ddY male mice weighing 20-25 g, 50% lethal dose of each test compound when intravenously administered was obtained, the results of which are shown in Table 6.
# tumor cells KN7 -8 = test: Anti-tumor activity (survivors on the 30th day); assay type: in vivo; conditions: survivors/group of 6 Balb/c male mice, 5×10^5 KN7 -8 cells i.p., 30 mg/kg i.p. 24 hours before and on 2nd and 5th day after inoculation
# Method: Groups, each consisting of 6 Balb/c male mice weighing about 20 g, were intraperitoneally administered 5×10^5 of tumor cells KN7 -8. Each test compound suspended in a surfactant solution was intraperitoneally administered (each time at a rate of 30 mg/kg) to the mice 24 hours before inoculation of the tumor cells and on the second day and the fifth day after the inoculation, totalling 3 times, and the anti-tumor activity was evaluated in terms of number of survivors on the 30th day after the inoculation.
# vaccinia virus [3] = assay type: cell-based; conditions: vero cells; 50 n molar concentration
# [4] = tested on: human interferon; normal diploid cells (fibroblast); test: Human interferon inducing activity (in vitro), 3H-uridine-uptake inhibition; assay type: cell-based; conditions: 25 n molar suspension, radioisotope microassay
# Method: Interferon was induced according to the method of Edward A. Havell et al. by treating normal diploid cells (fibroblast) originated from human being with each test compound (in the form of ethanol solution diluted with PBS (-), 25 n molar suspension). Using the radioisotope microassay method of H. Ishitsuka et al., interferon was measured in terms of 3H-uridine-uptakeinhibition rate.
compound,measurement,setting,value
CC(C)=CCCC(C)=CCCC(C)=CCCC(C)=CCCC(C)=CCCC(C)=CCCC(C)=CCCC(C)=CCCC(C)=CCCC(C)=CCNCCNCCNCCN [drawing 16],Prevention from vaccinia infection (Pock inhibition rate %),vaccinia virus [1],87.9%
CC(C)=CCCC(C)=CCCC(C)=CCCC(C)=CCCC(C)=CCCC(C)=CCCC(C)=CCCC(C)=CCCC(C)=CCCC(C)=CCNCCNCCNCCN [drawing 27],LD50,[2],57 mg/kg
CC(C)=CCCC(C)=CCCC(C)=CCCC(C)=CCCC(C)=CCCC(C)=CCCC(C)=CCCC(C)=CCCC(C)=CCCC(C)=CCNCCNCCN [drawing 22],Anti-tumor activity (Survivor on the 30th day),tumor cells KN7 -8; 30 mg/kg,2/6
CC(C)=CCCC(C)=CCCC(C)=CCCC(C)=CCCC(C)=CCCC(C)=CCCC(C)=CCCC(C)=CCCC(C)=CCCC(C)=CCNCCNCCNCCN [drawing 25],Anti-vaccinia virus activity (in vitro) (Plaque inhibition rate %),vaccinia virus [3],44.5%
CC(C)=CCCC(C)=CCCC(C)=CCCC(C)=CCCC(C)=CCCC(C)=CCCC(C)=CCCC(C)=CCCC(C)=CCCC(C)=CCNCCNCCNCCN [drawing 28],LD50,[2],21 mg/kg
CC(C)=CCCC(C)=CCCC(C)=CCCC(C)=CCCC(C)=CCCC(C)=CCCC(C)=CCCC(C)=CCCC(C)=CCNCCNCCNCCN [drawing 18],Prevention from vaccinia infection (Pock inhibition rate %),vaccinia virus [1],76.1%
CC(C)=CCCC(C)=CCCC(C)=CCCC(C)=CCCC(C)=CCCC(C)=CCCC(C)=CCCC(C)=CCCC(C)=CCNCCNCCNCCN [drawing 21],Anti-tumor activity (Survivor on the 30th day),tumor cells KN7 -8,3/6
CCNCCN(CC)CCN(CC)CCN(CC)CC=C(C)CCCC(C)CCCC(C)CCCC(C)C (stereo not shown),LD50,"[2]; mouse, in vivo, iv, read-out: LD50",34 mg/kg
CC(C)=CCCC(C)=CCCC(C)=CCCC(C)=CCCC(C)=CCCC(C)=CCCC(C)=CCCC(C)=CCCC(C)=CCCC(C)=CCNCCNCCN [drawing 17],Prevention from vaccinia infection (Pock inhibition rate %),vaccinia virus [1],51.9%
CC(C)=CCCC(C)=CCCC(C)=CCCC(C)=CCCC(C)=CCCC(C)=CCCC(C)=CCCC(C)=CCCC(C)=CCCC(C)=CCNCCNCCNCCN [drawing 19],Anti-tumor activity (Survivor on the 30th day),tumor cells KN7 -8,5/6
CC(C)=CCCC(C)=CCCC(C)=CCCC(C)=CCCC(C)=CCCC(C)=CCCC(C)=CCCC(C)=CCCC(C)=CCCC(C)=CCN(CCN(CCN(CCNCc1ccccc1)Cc1ccccc1)Cc1ccccc1)Cc1ccccc1,Human interferon (in vitro) 3H-uridine-uptake inhibition rate %,[4],23.2%
CC(C)=CCCC(C)=CCCC(C)=CCCC(C)=CCCC(C)=CCCC(C)=CCCC(C)=CCCC(C)=CCCC(C)=CCCC(C)=CCNCCNCCN [drawing 24],Human interferon (in vitro) 3H-uridine-uptake inhibition rate %,[4],15.1%
CC(C)=CCCC(C)=CCCC(C)=CCCC(C)=CCCC(C)=CCCC(C)=CCCC(C)=CCCC(C)=CCCC(C)=CCCC(C)=CCNCCNCCN [drawing 20],Anti-tumor activity (Survivor on the 30th day),tumor cells KN7 -8; 30 mg/kg,1/6
